According to US20120035183A1, “Cancer Treatment Method” (priority 2008, published 2012):

Legend:
[1] = system: JIMT-1 breast tumor cell line; experiment: CellTiter-Glo cell growth inhibition assay, JIMT-1; assay type: cell-based; details: for IC50: Homo sapiens, JIMT-1, 72 h, JIMT1, breast, basal, HER2+, 3 days
Method: (§1) Breast tumor cell lines, BT-474, SK-Br-3, MDA-MB-453, MDA-MB-231 and T47D and head and neck squamous cell carcinoma line, SCC15 were purchased from the American Type Culture Collection.
(§2) BT-474, SK-Br-3, JimT-1, MDA-MB-453, MDA-MB-231 and T47D and SCC15 were cultured in a humidified incubator at 37° C. in 95% air, 5% CO2 in the RPMI 1640 containing 10% fetal bovine serum (FBS) media.
(§3) Cell growth inhibition was determined via CellTiter-Glo cell viability assays. Cells were seeded in a 96-well tissue culture plate (NUNC 136102) with the following plating densities in their respective media at 1000 or 2000 cells/well dependent on cell growth rate. […] The cells were incubated in the presence of the compounds for 3 days. ATP levels were determined by adding Cell Titer Glo® (Promega), incubating for 20 minutes then a luminescent signal was read on the SpectraMax M5 plate with a 0.5 sec integration time. Cell growth was calculated relative to vehicle (DMSO) treated control wells. […] When the CI value was between 0.9 and 1.10, the combination of the two agents was deemed additive. Combination Index values less than 0.9 were considered indicative of synergy. Combination Index values>1.10 indicated antagonism.

[2] = system: SK-BR-3 breast tumor cell line; experiment: CellTiter-Glo cell growth inhibition assay, SK-BR-3; assay type: cell-based; details: Homo sapiens, 72 h, luminal, HER2+, 3 days
Method: as §1, §2, §3

[3] = system: BT-474 breast tumor cell line; experiment: CellTiter-Glo cell growth inhibition assay, BT-474; assay type: cell-based; details: for IC50: Homo sapiens, BT-474, 72 h, BT474, breast, luminal, HER2+, 3 days
Method: as §1, §2, §3

[4] = system: MDA-MB-453 breast tumor cell line; experiment: CellTiter-Glo cell growth inhibition assay, MDA-MB-453; assay type: cell-based; details: Homo sapiens, 72 h, luminal, HER2+, 3 days
Method: as §1, §2, §3

[5] = system: MDA-MB-231 breast tumor cell line; experiment: CellTiter-Glo cell growth inhibition assay, MDA-MB-231; assay type: cell-based; details: Homo sapiens, 72 h, post EMT, HER normal, 3 days
Method: as §1, §2, §3

[6] = system: T47D breast tumor cell line; experiment: CellTiter-Glo cell growth inhibition assay, T47D; assay type: cell-based; details: Homo sapiens, 72 h, luminal, HER normal, 3 days
Method: as §1, §2, §3

[7] = system: LL1-BT-474-J4 (J4) breast cell clone; experiment: CellTiter-Glo cell growth inhibition assay, LL1-BT-474-J4; assay type: cell-based; details: for IC50: 72 h; for sensitivity of the cell line to the agent (in words): LL1-BT-474-J4
[8] = system: SCC15 head and neck squamous cell carcinoma line; experiment: cells; details: Homo sapiens, SCC-15, 72 h, read-out: IC50 (cell growth inhibition)
Method: as §1, §2, §3

[9] = system: HN5C2 head and neck tumor cell line; experiment: CellTiter-Glo cell growth inhibition assay, HN5C2; assay type: cell-based
[10] = system: EGFR and erbB2 kinases; details: Rusnak et al., 2001b, Xia et al., 2002; cited from earlier work

| IC50 [1] [µM] | IC50 [2] [µM] | IC50 [3] [µM] | IC50 [4] [µM] | IC50 [7] [µM] | IC50 [8] [µM] | IC50 ([9]; 72 h) [µM] | SMILES | IC50 [5] [µM] | IC50 [6] [µM] | sensitivity of the cell line to the agent (in words) ([1]; JIMT-1) | sensitivity of the cell line to the agent (in words) ([3]; BT-474) | sensitivity of the cell line to the agent (in words) [7] | sensitivity of the cell line to the agent (in words) ([9]; HN5C2) | kinase inhibition in human xenograft studies [10] |
| --- | --- | --- | --- | --- | --- | --- | --- | --- | --- | --- | --- | --- | --- | --- |
| 0.4 | 6.64 | 10.1 | > 10 | > 10 | 0.06 |  | Cc1nc(Nc2ncc(C(=O)Nc3c(C)cccc3Cl)s2)cc(N2CCN(CCO)CC2)n1 [Dasatinib, N-(2-chloro-6-methylphenyl)-2-[[6-[4-(2-hydroxyethyl)-1-piperazinyl]-2-methyl-4-pyrimidinyl]amino]-5-thiazolecarboxamide,monohydrate] | 0.23 | 8.96 |  |  |  |  |  |
| 14.7 | 0.22 | 0.09 | 4.79 | 10.9 |  | 9.78 | CS(=O)(=O)CCNCc1ccc(-c2ccc3ncnc(Nc4ccc(OCc5cccc(F)c5)c(Cl)c4)c3c2)o1 [Lapatinib, N-{3-chloro-4-[(3-fluorobenzyl)oxy]phenyl}-6-[5-({[2-(methanesulphonyl)ethyl]amino}methyl)-2-furyl]-4-quinazolinamine] | > 10 | > 10 | resistant | highly sensitive | resistant | resistant | dose-dependent kinase inhibition |
|  |  |  |  |  |  |  | COc1cc2ncnc(Nc3ccc(F)c(Cl)c3)c2cc1OCCCN1CCOCC1 [gefitinb] |  |  |  |  | resistant |  |  |
|  |  |  |  |  |  |  | CC(=O)O[C@H]1C(=O)[C@@]2(C)[C@H]([C@H](OC(=O)c3ccccc3)[C@]3(O)C[C@H](OC(=O)[C@H](O)[C@@H](NC(=O)c4ccccc4)c4ccccc4)C(C)=C1C3(C)C)[C@]1(OC(C)=O)CO[C@@H]1C[C@@H]2O [taxol] |  |  |  |  | retains sensitivity |  |  |
